Test [1] concerns Pseudomonas aeruginosa. Briefly: Antibacterial activity against Pseudomonas aeruginosa MTCC 1688 assessed as growth inhibition after 24 hrs by broth dilution assay. The test is classed as functional. The note with it: MTCC 1688, 24 h.
Test [2] relates to Streptococcus pyogenes. Briefly: Antibacterial activity against Streptococcus pyogenes MTCC 442 assessed as growth inhibition after 24 hrs by broth dilution assay. The format is functional. The note with it: MTCC 442, 24 h. (Broth dilution looks for growth in wells or tubes with falling amounts of substance.)
For test [3], the system named is Staphylococcus aureus. Briefly: Antibacterial activity against Staphylococcus aureus MTCC 96 assessed as growth inhibition after 24 hrs by broth dilution assay. The format is functional. Conditions: MTCC 96, 24 h.
Test [4] concerns Aspergillus clavatus. As to the kind of experiment: Antifungal activity against Aspergillus clavatus assessed as growth inhibition after 48 hrs by broth dilution assay. The format is functional.
For test [5], the system named is Candida albicans. Briefly: Antifungal activity against Candida albicans assessed as growth inhibition after 48 hrs by broth dilution assay. The format is functional.
For test [6], the system named is Aspergillus niger. As to the kind of experiment: Antifungal activity against Aspergillus niger assessed as growth inhibition after 48 hrs by broth dilution assay. The format is functional.
Test [7] has as its system Escherichia coli. As to the kind of experiment: Antibacterial activity against Escherichia coli MTCC 443 assessed as growth inhibition after 24 hrs by broth dilution assay. The format is functional. The note with it: MTCC 443, 24 h.
The test system of the next test is HeLa. Briefly: Cytotoxicity against human HeLa cells assessed as growth inhibition after 24 to 72 hrs by MTT assay. The format is cell-based. In general terms: Tetrazolium assays rely on reduction of a dye to a coloured formazan, in cell work by metabolically active cells.
Test [8] relates to Staphylococcus aureus. As to the kind of experiment: Antibacterial activity against Staphylococcus aureus MTCC 96 assessed as growth inhibition at 12.5 to 1000 ug/mL after 24 hrs by broth dilution assay. The format is functional, organism-based.
The test system of test [9] is Escherichia coli. As to the kind of experiment: Antibacterial activity against Escherichia coli MTCC 443 assessed as growth inhibition at 12.5 to 1000 ug/mL after 24 hrs by broth dilution assay. The format is functional, organism-based.
In test [10] the test system is Aspergillus niger. Briefly: Antifungal activity against Aspergillus niger assessed as growth inhibition at 12.5 to 1000 ug/mL after 48 hrs by broth dilution assay. The test is classed as functional, organism-based.
Test [11] relates to Candida albicans. Briefly: Antifungal activity against Candida albicans assessed as growth inhibition at 12.5 to 1000 ug/mL after 48 hrs by broth dilution assay. The test is classed as functional, organism-based.
Test [12] has as its system Streptococcus pyogenes. As to the kind of experiment: Antibacterial activity against Streptococcus pyogenes MTCC 442 assessed as growth inhibition at 12.5 to 1000 ug/mL after 24 hrs by broth dilution assay. The format is functional, organism-based.
The test system of test [13] is Pseudomonas aeruginosa. As to the kind of experiment: Antibacterial activity against Pseudomonas aeruginosa MTCC 1688 assessed as growth inhibition at 12.5 to 1000 ug/mL after 24 hrs by broth dilution assay. The format is functional, organism-based.
The subject of test [14] is Aspergillus clavatus. As to the kind of experiment: Antifungal activity against Aspergillus clavatus assessed as growth inhibition at 12.5 to 1000 ug/mL after 48 hrs by broth dilution assay. The test is classed as functional, organism-based.

Converted amounts (≈) assume the structure as drawn. The source made the active and inactive calls. No cut-off for these calls is given here. A value given as a limit tells only on which side of the number the result lay.

In general, MIC refers to the lowest concentration found to suppress growth. `N#Cc1c(-c2ccc([N+](=O)[O-])cc2)cc(-c2nc3ccccc3[nH]2)nc1/N=C/c1ccccc1`: the MIC with Pseudomonas aeruginosa [1] and with Streptococcus pyogenes [2] was 1000 µg/mL (≈ 2250 µM) in each case.
As for `N#Cc1c(-c2ccc(Cl)cc2)cc(-c2nc3ccccc3[nH]2)nc1N`, the MIC in the test with Pseudomonas aeruginosa [1], with Streptococcus pyogenes [2] and in the test with Staphylococcus aureus [3] was no less than 1000 µg/mL in each case.
Turning to `N#Cc1c(-c2cccc(Cl)c2)cc(-c2nc3ccccc3[nH]2)nc1N`, the MIC in the test with Pseudomonas aeruginosa [1], in the test on Streptococcus pyogenes [2], in the test with Aspergillus clavatus [4], with Candida albicans [5], in the test on Staphylococcus aureus [3] and with Aspergillus niger [6] was no less than 1000 µg/mL throughout.
What is called IC50 is the concentration that gives 50% inhibition. `N#Cc1c(-c2ccccc2Cl)cc(-c2nc3ccccc3[nH]2)nc1N1C(=O)C(Cl)C1c1ccccc1` (configuration not stated): the MIC with Pseudomonas aeruginosa [1] worked out at 250 µg/mL (≈ 490 µM); in the test on Escherichia coli [7] it was 100 µg/mL (≈ 196 µM); in the test with Streptococcus pyogenes [2] it was 100 µg/mL (≈ 196 µM); in the test on Aspergillus clavatus [4], 100 µg/mL (≈ 196 µM); in the test on Candida albicans [5], 100 µg/mL (≈ 196 µM); in the test on Staphylococcus aureus [3], 100 µg/mL (≈ 196 µM). Also, in the test with Aspergillus niger [6], the MIC was found to be 100 µg/mL (≈ 196 µM). Moreover, the IC50 in the test on HeLa was greater than 100 µM.
For `Cc1cccc(-c2cc(-c3nc4ccccc4[nH]3)nc(N)c2C#N)c1`, the “growth inhibition (GI)” value in the test with Staphylococcus aureus [8], with Escherichia coli [9], in the test on Aspergillus niger [10], in the test with Candida albicans [11], in the test with Streptococcus pyogenes [12] and with Pseudomonas aeruginosa [13] was “inactive” in each case. In the test with Aspergillus clavatus [14], the “growth inhibition (GI)” value was “inactive”.
In the case of `N#Cc1c(-c2ccccc2)cc(-c2nc3ccccc3[nH]2)nc1N1C(=O)C(Cl)C1c1ccccc1` (configuration not stated), the minimal inhibitory concentration (MIC) with Pseudomonas aeruginosa [1] was determined as 500 µg/mL (≈ 1050 µM); in the test on Escherichia coli [7], 250 µg/mL (≈ 525 µM); in the test on Streptococcus pyogenes [2], 500 µg/mL (≈ 1050 µM); in the test on Aspergillus clavatus [4], 500 µg/mL (≈ 1050 µM); in the test on Candida albicans [5] it was 500 µg/mL (≈ 1050 µM); with Staphylococcus aureus [3], 250 µg/mL (≈ 525 µM). Further, the MIC in the test on Aspergillus niger [6] worked out at 250 µg/mL (≈ 525 µM). Also, the IC50 with HeLa was 81 µM.
In the case of `N#Cc1c(-c2cccc([N+](=O)[O-])c2)cc(-c2nc3ccccc3[nH]2)nc1N`, the MIC in the test on Pseudomonas aeruginosa [1], with Streptococcus pyogenes [2], in the test on Aspergillus clavatus [4], in the test on Candida albicans [5], with Staphylococcus aureus [3] and with Aspergillus niger [6] was no less than 1000 µg/mL in each case.
Take `N#Cc1c(-c2ccc(Cl)cc2)cc(-c2nc3ccccc3[nH]2)nc1N1C(=O)C(Cl)C1c1ccccc1` (configuration not stated): the MIC came to 12.5 µg/mL (≈ 24.5 µM) in the test with Pseudomonas aeruginosa [1]; 12.5 µg/mL (≈ 24.5 µM) in the test on Escherichia coli [7]; 25 µg/mL (≈ 49 µM) in the test on Streptococcus pyogenes [2]; 100 µg/mL (≈ 196 µM) in the test on Aspergillus clavatus [4]; 100 µg/mL (≈ 196 µM) in the test with Candida albicans [5]; 12.5 µg/mL (≈ 24.5 µM) with Staphylococcus aureus [3]. In the test on Aspergillus niger [6], the MIC is 100 µg/mL (≈ 196 µM). In addition, the IC50 in the test with HeLa was greater than 100 µM.
`N#Cc1c(-c2ccc(Cl)cc2O)cc(-c2nc3ccccc3[nH]2)nc1N1C(=O)C(Cl)C1c1ccccc1` (configuration not stated): the MIC in the test with Pseudomonas aeruginosa [1] is 200 µg/mL (≈ 380 µM); in the test with Escherichia coli [7] it was 500 µg/mL (≈ 950 µM); in the test on Streptococcus pyogenes [2] it was 250 µg/mL (≈ 475 µM); in the test on Aspergillus clavatus [4], 250 µg/mL (≈ 475 µM); in the test on Candida albicans [5], 250 µg/mL (≈ 475 µM); in the test with Staphylococcus aureus [3] it was 100 µg/mL (≈ 190 µM). Further, in the test on Aspergillus niger [6], the MIC turned out to be 250 µg/mL (≈ 475 µM). For the same compound, in the test on HeLa, the IC50 stood at 91.5 µM.
Turning to `N#Cc1c(-c2ccccc2Cl)cc(-c2nc3ccccc3[nH]2)nc1/N=C/c1ccccc1`, the MIC in the test on Pseudomonas aeruginosa [1] and in the test with Streptococcus pyogenes [2] was 1000 µg/mL (≈ 2300 µM) each time.
Take `N#Cc1c(-c2ccc(O)cc2)cc(-c2nc3ccccc3[nH]2)nc1N1C(=O)C(Cl)C1c1ccccc1` (configuration not stated): the MIC in the test with Pseudomonas aeruginosa [1] worked out at 250 µg/mL (≈ 508 µM); with Escherichia coli [7], 250 µg/mL (≈ 508 µM); in the test on Streptococcus pyogenes [2], 250 µg/mL (≈ 508 µM); in the test on Aspergillus clavatus [4], 250 µg/mL (≈ 508 µM); in the test with Candida albicans [5], 500 µg/mL (≈ 1020 µM); in the test with Staphylococcus aureus [3], 250 µg/mL (≈ 508 µM). In the test on Aspergillus niger [6], the MIC was 500 µg/mL (≈ 1020 µM). Further, in the test with HeLa, the IC50 amounted to 67.4 µM.
Regarding `N#Cc1c(-c2ccccc2O)cc(-c2nc3ccccc3[nH]2)nc1N1C(=O)C(Cl)C1c1ccccc1` (configuration not stated), the MIC with Pseudomonas aeruginosa [1], in the test with Escherichia coli [7], in the test on Streptococcus pyogenes [2], in the test with Aspergillus clavatus [4], in the test on Candida albicans [5] and in the test on Staphylococcus aureus [3] was 500 µg/mL (≈ 1020 µM) throughout. Moreover, the MIC in the test with Aspergillus niger [6] worked out at 500 µg/mL (≈ 1020 µM). Moreover, the IC50 in the test with HeLa was found to be 78 µM.
As for `N#Cc1c(-c2ccc([N+](=O)[O-])cc2)cc(-c2nc3ccccc3[nH]2)nc1N1C(=O)C(Cl)C1c1ccccc1` (configuration not stated), the MIC in the test with Pseudomonas aeruginosa [1] was found to be 12.5 µg/mL (≈ 24 µM); in the test with Escherichia coli [7] it was 25 µg/mL (≈ 48 µM); in the test on Streptococcus pyogenes [2], 25 µg/mL (≈ 48 µM); with Aspergillus clavatus [4] it was 100 µg/mL (≈ 192 µM); in the test on Candida albicans [5] it was 100 µg/mL (≈ 192 µM); in the test on Staphylococcus aureus [3] it was 12.5 µg/mL (≈ 24 µM). Further, the MIC in the test on Aspergillus niger [6] amounted to 100 µg/mL (≈ 192 µM). Besides, in the test on HeLa, the IC50 is greater than 100 µM.

The record behind these values is ChEMBL document CHEMBL2429780, “Synthesis, antimicrobial and cytotoxic activity of 2-azetidinone derivatives of pyridyl benzimidazoles” (Med Chem Res, 2013).
